Test results: US20020143143A1, “Peptides designed for the diagnosis and treatment of rheumatoid arthritis” (priority 1999, published 2002)
Read-outs that look alike come from different tables or passages of the source.

How the values were obtained:
RA sera [1] = conditions: 159/279 RA sera; specificity level of 98.6% using 213 disease control sera; cited from earlier work
[2] = test system: anti-filaggrin antibodies in human sera; assay: Western blotting using natural filaggrin; format: binding
Experimental: Natural filaggrin was purified from human skin obtained freshly after abdominoplasty according to the protocol of Simon et al. (1993). The amount of protein was determined by the Bradford protein assay as modified by Peterson (1983) using BSA standard curves. The crude filaggrin preparation was subjected to 15% Laemmli SDS-PAGE using the Bio-Rad mini-gel apparatus. Two-μg protein/cm was loaded in a large slot and electrophoresed under standard conditions. The gel was subsequently electroblotted onto nitrocellulose membrane in 10% methanol, 10 mM CAPS, pH 11.0 during 40 min. The blot was blocked in PBS, 0.05% Tween20, 1% gelatin and cut into 3 mm strips, which were probed with human sera overnight at a 1/100 dilution in PBS, 0.05% Tween20, 0.1% gelatin. As a secondary antibody the anti-human IgG-AP conjugate (Sigma, St Louis, […]) was added at a 1/1000 dilution; visualisation occurred with the NBT/BCIP chromogenic substrate.

RA sera [3] = conditions: cited from earlier work
[4] = test system: RA specific autoantibodies in human sera; assay: LIA comparison of synthetic peptides with existing peptides and citrullinated recombinant filaggrin (Example 3); format: binding; conditions: 212 established RA sera, 153 disease control sera (table title: 225 and 154); ROC analysis
Experimental: Streptavidin-complexed peptides were applied directly on a nylon membrane with a plastic backing. Blocked strips were incubated during 1 hour with human sera diluted 1/100 in 1 ml PBS, 0.5% caseine, 0.1% Triton X705, 10 mM MgCl2.6H2O. After washing with PBS, 0.05% Tween20, goat anti-human IgG-AP conjugate (Promega) diluted in PBS, 0.1% caseine, 0.2% Triton X705 was added for 30 min. Strips were developed in 100 mM NaCl, 100 mM Tris-HCl, pH 9.8, 50 mM MgCl2.6H2O substrate buffer containing the chromogenic substrate NBT/BCIP. Reaction was stopped after 30 min by addition of 0.2 N H2SO4. Air-dried strips were scanned using a HP Scanjet 5P scanner and an in-house LIA interpretation software program.
Recombinant human filaggrin was expressed in E. coli and purified by Ni-IMAC chromatography. Citrullination was performed as described by Senshu et al. (1995) using peptidylarginine deiminase (Sigma) at a 1/120 enzyme/substrate ratio during 4h at 37° C.
Three synthetic peptides (IGP1475, 1477 and 1564) described by Girbal-Neuhauser (1999) (patent application WO 99/35167) and the cyclic peptide IGP1546 described in the patent application WO 98/22503, were synthesised and used for comparison with IGP1611, 1646, 1650 and 1651 on LIA.
On the same strips, also citrullinated recombinant E. coli filaggrin was applied. […]

[5] = test system: anti-filaggrin autoantibodies; conditions: cited from earlier work

For “natural filaggrin: Natural filaggrin purified from human skin (crude filaggrin preparation); in b6 isolated from human epidermis”, the “RA sera showing positive reaction on Western blot” value (RA sera [1]) is given as 37%, the “sensitivity of Western blot” value ([2]; 47 sera from patients with early disease (less than 12 months of symptoms)) is given as 25% and the “specificity of Western blot system” value ([2]; 153 disease controls) is given as 94%. The “sensitivity of Western blot” value ([2]; 212 longstanding RA sera) was 41%, the “RA sera detected in ELISA” value (RA sera [3]; 55 RA sera) was 47% and the “healthy controls showing positivity in ELISA” value (RA sera [3]; healthy controls) was 1%.

For “Citr. rec. filaggrin: Recombinant human filaggrin expressed in E. coli, citrullinated using peptidylarginine deiminase”, the “Sensitivity at 98% spec. level” value [4] was 32%.

In the case of “recombinant human filaggrin: recombinant human filaggrin, in vitro deiminated by PAD or non-citrullinated (Girbal-Neuhauser et al., 1999)”, the “reactivity with human RA sera in ELISA” value ([5]; after in vitro deimination by peptidylarginine deiminase (PAD)) is listed as “reactive” and the “reactivity with human RA sera in ELISA” value ([5]; non-citrullinated protein) is listed as “unreactive”.
